The values that follow come from US8889705B2, “Noscapine analogs and their use in treating cancers” (Emory University, priority 2007, dated 2014).

Like-named read-outs stand apart in the source and are kept apart here.

One experiment deals with CEM cells. The experiment can be described thus: In vitro cell proliferation MTS assay. The format is cell-based. To be noted: Homo sapiens, CCRF-CEM, 72 hours. The protocol:
(§1) Suspension cells (CEM, CEMNLB100 and CEM/VM-1-5) were cultured in RPMI-1640 media containing 10% FBS and then seeded into 96-well plates at a density of 5×10^3 cells per well and were treated with increasing gradient concentrations of 9-nitro-nos for 72 hours. Measurement of cell proliferation was performed colorimetrically by 3-(4,5-dimethylthiazol-2-yl)-5-(3-carboxymethoxyphenyl)-2-(4-sulphophenyl)-2H-tetrazolium, inner salt (MTS) assay, using the CellTiter96 AQueous One Solution Reagent (Promega, Madison, Wis.). Cells were exposed to MTS for 3 hours and absorbance was measured using a microplate reader (Molecular Devices, Sunnyvale, Calif.) at an optical density (OD) of 490 nm. The percentage of cell survival as a function of drug concentration for both the assays was then plotted to determine the IC50 value, which stands for the drug concentration needed to prevent cell proliferation by 50%.
as §1, with “(CEM)” for “(CEM, CEMNLB100 and CEM/VM-1-5)”, “were” for “were cultured in RPMI-1640 media containing 10% FBS and then”, “increasing” for “increasing gradient”, “all halogenated analogs” for “9-nitro-nos”
(In general: Formazan colour is commonly taken as a measure of viable cells.)

Experiment [1] deals with MDA-MB-231 cells. The experiment is described as follows: Sulforhodamine B cell proliferation assay. Type of experiment: cell-based. As to conditions: Homo sapiens; MDA-MB-231, 72 hours, SRB. The protocol:
(§2) Sulforhodamine B (SRB) assay: The cell proliferation assay was performed in 96-well plates as described previously. Adherent cells (MCF-7 and MDA-MB-231) were seeded in 96-well plates at a density of 5×10^3 cells per well. They were treated with increasing concentrations of the halogenated analogs the next day while in log-phase growth. After 72 hours of drug treatment, cells were fixed with 50% trichloroacetic acid and stained with 0.4% sulforhodamine B dissolved in 1% acetic acid. After 30 minutes, cells were then washed with 1% acetic acid to remove the unbound dye. The protein-bound dye was extracted with 10 mM Tris base to determine the optical density at 564-nm wavelength.

Experiment [2] concerns MCF-7 cells. The experiment can be described thus: Sulforhodamine B cell proliferation assay. Type of experiment: cell-based, human. To be noted: MCF-7, 72 hours, SRB. The method, then:
as §2

The subject of experiment [3] is MDA-MB-231 cells. The experiment can be described thus: DAPI staining, cell morphology by fluorescence microscopy. The format is cell-based, human. To be noted: 25 μM, 72 hours. The method, then:
Cell morphology was evaluated by fluorescence microscopy following DAPI staining (Vectashield, Vector Labs, Inc., Burlingame, Calif.). MDA-MB-231 cells were grown on poly-L-lysine coated coverslips in 6-well plates and were treated with the halogenated analogs at 25 μM for 72 hours. After incubation, coverslips were fixed in cold methanol and washed with PBS, stained with DAPI, and mounted on slides. Images were captured using a BX60 microscope (Olympus, Tokyo, Japan) with an 8-bit camera (Dage-MTI, Michigan City, Ind.) and IP Lab software (Scanalytics, Fairfax, Va.). Apoptotic cells were identified by features characteristic of apoptosis (e.g. nuclear condensation, formation of membrane blebs and apoptotic bodies).

Experiment [4] has as its system MCF-7 cells. The experiment is described as follows: Cell cycle analysis (propidium iodide, flow cytometry). To be noted: for G0/G1 / G2/M / S / Sub-G1: MCF-7, 25 μM, mean ± S.E.M. The format is cell-based, human. The protocol: The flow cytometric evaluation of the cell cycle status was performed as described previously. Briefly, 2×10^6 cells were centrifuged, washed twice with ice-cold PBS, and fixed in 70% ethanol. Tubes containing the cell pellets were stored at 4° C. for at least 24 hours. Cells were then centrifuged at 1000×g for 10 min and the supernatant was discarded. The pellets were washed twice with 5 ml of PBS and then stained with 0.5 ml of propidium iodide (0.1% in 0.6% Triton-X in PBS) and 0.5 ml of RNase A (2 mg/ml) for 45 minutes in dark. Samples were then analyzed on a FACSCalibur flow cytometer (Beckman Coulter Inc., Fullerton, Calif.).
A general note: In flow cytometry, cells or beads pass a laser one at a time.

The target of experiment [5] is T1, tubulin.
T1 construct: other: 2 μM tubulin, 45 min at 37° C., double reciprocal plot; rate and extent of tubulin polymerization; other: 25 μM or 100 μM
To be noted: values with literature reference [18], [12], [43]; read-out: dissociation constant (Kd) for binding to tubulin; cited from earlier work.

Experiment [6] concerns the target T1, tubulin. The experiment can be described thus: Tubulin binding assay (fluorescence titration, quenching of intrinsic tubulin fluorescence). On the set-up: species or system mammalian. As to conditions: 2 μM tubulin, 45 min at 37° C., double reciprocal plot; read-out: dissociation constant (Kd) for binding to tubulin. The method, then: Fluorescence titration for determining the tubulin binding parameters was performed as described previously (Gupta and Panda, 2002). In brief, 9-nitro-nos (0-100 μM) was incubated with 2 μM tubulin in 25 mM PIPES, pH 6.8, 3 mM MgSO4 and 1 mM EGTA for 45 min at 37° C. The relative intrinsic fluorescence intensity of tubulin was then monitored in a JASCO FP-6500 spectrofluorometer (JASCO, Tokyo, Japan) using a cuvette of 0.3-cm path length, and the excitation wavelength was 295 nm. The fluorescence emission intensity of 9-nitro-nos at this excitation wavelength was negligible. A 0.3-cm path-length cuvette was used to minimize the inner filter effects caused by the absorbance of 9-nitro-nos at higher concentration ranges. In addition, the inner filter effects were corrected using a formula Fcorrected=Fobserved·antilog [(Aex+Aem)/2], where Aex is the absorbance at the excitation wavelength and Aem is the absorbance at the emission wavelength. The dissociation constant (Kd) was determined by the formula: 1/B=Kd/[free ligand]+1, where B is the fractional occupancy and [free ligand] is the concentration of free noscapine or 9-nitro-nos. The fractional occupancy (B) was determined by the formula B=ΔF/ΔFmax, where ΔF is the change in fluorescence intensity when tubulin and its ligand are in equilibrium and ΔFmax is the value of maximum fluorescence change when tubulin is completely bound with its ligand. ΔFmax was calculated by plotting 1/ΔF versus 1/ligand using total ligand concentration as the first estimate of free ligand concentration.
Fluorescence titration for determining the tubulin binding parameters was performed as described previously. In brief, 9-F-nos, 9-Cl-nos, 9-Br-nos or 9-I-nos (0-100 μM) was incubated with 2 μM tubulin in 25 mM PIPES, pH 6.8, 3 mM MgSO4, and 1 mM EGTA for 45 min at 37° C. The relative intrinsic fluorescence intensity of tubulin was then monitored in a JASCO FP-6500 spectrofluorometer (JASCO, Tokyo, Japan) using a cuvette of 0.3-cm path length, and the excitation wavelength was 295 nm. The fluorescence emission intensity of noscapine and its derivatives at this excitation wavelength was negligible. A 0.3-cm path-length cuvette was used to minimize the inner filter effects caused by the absorbance of these agents at higher concentration ranges. In addition, the inner filter effects were corrected using a formula F corrected=F observe·antilog [(Aex+Aem)/2], where Aex is the absorbance at the excitation wavelength and Aem is the absorbance at the emission wavelength. The dissociation constant (Kd) was determined by the formula: 1/B=Kd/[free ligand]+1, where B is the fractional occupancy and [free ligand] is the concentration of 9-F-nos, 9-Cl-nos, 9-Br-nos or 9-I-nos. The fractional occupancy (B) was determined by the formula B=ΔF/ΔFmax, where ΔF is the change in fluorescence intensity when tubulin and its ligand are in equilibrium and ΔFmax is the value of maximum fluorescence change when tubulin is completely bound with its ligand. ΔFmax was calculated by plotting 1/ΔF versus 1/[free ligand].

Experiment [7] relates to tubulin. As to conditions: even at 100 μM (Zhou et al., 2003); cited from earlier work.
The subject of the next experiment is CEM/VM-1-5 cells. To be noted: CEM/VM-1-5 (Morgan et al., 2000); cited from earlier work.
In the next experiment the test system is CEM/VLB100 cells. To be noted: CEM/VLB100 (Beck and Cirtain, 1982); cited from earlier work.

With `COc1ccc2c(c1OC)C(=O)OC2C1c2c(c(Cl)c3c(c2OC)OCO3)CCN1C` (centres unmarked) [9-Cl-nos], the IC50 – broadly, the concentration at which inhibition is half-maximal – was found to be 1.2 ± 0.3 µM in the experiment on CEM cells; 1.9 ± 0.3 µM with MDA-MB-231 cells [1]; 1.9 ± 0.3 µM in the experiment on MCF-7 cells [2] (Homo sapiens, MCF7, 72 h); 3.5 ± 0.4 µM in the experiment with MCF-7 cells [2]. In the experiment on MDA-MB-231 cells [3], the “nuclear morphology (features of apoptotic cells), DAPI” value is “condensed chromosomes, numerous fragmented micronuclei, and apoptotic bodies are evident”. The G0/G1 stood at 69 ± 5.6% in the experiment with MCF-7 cells [4] (0 h), 11.5 ± 2.7% with MCF-7 cells [4] (24 h), 8 ± 3.3% in the experiment with MCF-7 cells [4] (48 h) and 5.9 ± 1.9% in the experiment with MCF-7 cells [4] (72 h). Also, the G2/M with MCF-7 cells [4] (0 h) was determined as 20.7 ± 3.4%; with MCF-7 cells [4] (24 h), 59.7 ± 5.2%; in the experiment on MCF-7 cells [4] (48 h) it was 42.4 ± 3.8%; with MCF-7 cells [4] (72 h), 35.3 ± 3.9%. In addition, the S in the experiment on MCF-7 cells [4] (0 h) stood at 7.5 ± 1.6%; in the experiment on MCF-7 cells [4] (24 h), 4.3 ± 1.4%; in the experiment with MCF-7 cells [4] (48 h), 4 ± 1.1%; in the experiment with MCF-7 cells [4] (72 h), 4.1 ± 1.4%. The Sub-G1 in the experiment on MCF-7 cells [4] (0 h) is recorded as 1.4 ± 0.5%; in the experiment on MCF-7 cells [4] (24 h) it was 15.3 ± 2.5%; in the experiment on MCF-7 cells [4] (48 h), 37.8 ± 3.2%; in the experiment on MCF-7 cells [4] (72 h), 50.2 ± 2.5%. Moreover, the “percent sub-G1 cells compared with noscapine” value in the experiment on MCF-7 cells [4] (MCF-7, lower doses (5 μM and 10 μM), 72 hours) is listed as “higher”. In addition, the Kd at tubulin [5] and on tubulin [6] was 40 ± 8 µM each time.
Take `COc1ccc2c(c1OC)C(=O)O[C@@H]2[C@H]1c2c(cc3c(c2OC)OCO3)CCN1C` [Nos, (S)-6,7-dimethoxy-3-((R)-4-methoxy-6-methyl-5,6,7,8-tetrahydro[1,3]-dioxolo-[4,5-g]isoquinolin-5-yl)isobenzo-furan-1(3H)-one, reference compound]: in the experiment with tubulin [7], the “microtubule polymerization upon binding tubulin” value is listed as “does not significantly promote or inhibit microtubule polymerization”. The IC50 in the experiment with CEM cells turned out to be 16.6 ± 2.4 µM; in the experiment on MDA-MB-231 cells [1], 36.3 ± 1.8 µM; in the experiment with MCF-7 cells [2] (Homo sapiens, MCF7, 72 h), 39.6 ± 2.2 µM. The G0/G1 with MCF-7 cells [4] (0 h) was determined as 54.8 ± 0.03%; in the experiment with MCF-7 cells [4] (24 h), 18.3 ± 3.3%; in the experiment with MCF-7 cells [4] (48 h), 19.8 ± 1.9%; in the experiment with MCF-7 cells [4] (72 h) it was 20.5 ± 0.2%. The G2/M is 29.9 ± 2.2% in the experiment on MCF-7 cells [4] (0 h), 50.2 ± 3.6% in the experiment on MCF-7 cells [4] (24 h), 28.07 ± 0.2% in the experiment on MCF-7 cells [4] (48 h) and 26.3 ± 0.2% in the experiment on MCF-7 cells [4] (72 h). Moreover, the S with MCF-7 cells [4] (0 h) is 13.2 ± 0.2%; in the experiment on MCF-7 cells [4] (24 h), 3.4 ± 0.8%; with MCF-7 cells [4] (48 h), 4.1 ± 0.6%; in the experiment on MCF-7 cells [4] (72 h), 7.06 ± 0.2%. In addition, the Sub-G1 is 0.2 ± 0.03% in the experiment on MCF-7 cells [4] (0 h), 10.2 ± 1.2% in the experiment with MCF-7 cells [4] (24 h), 36.8 ± 3.7% in the experiment with MCF-7 cells [4] (48 h) and 36.9 ± 0.2% in the experiment with MCF-7 cells [4] (72 h). Moreover, at tubulin [5], the Kd (in general, a measure of binding affinity in units of concentration) is 144 ± 2.8 µM.
`COc1cc([C@@H]2c3cc4c(cc3[C@@H](O[C@@H]3O[C@@H]5CO[C@@H](c6cccs6)O[C@H]5[C@H](O)[C@H]3O)[C@H]3COC(=O)[C@H]23)OCO4)cc(OC)c1O` [teniposide]: the resistance to teniposide in the experiment with CEM/VM-1-5 cells is 400 fold.
For the compound `CC[C@]1(O)C[C@@H]2CN(CCc3c([nH]c4ccccc34)[C@@](C(=O)OC)(c3cc4c(cc3OC)N(C)[C@H]3[C@@](O)(C(=O)OC)[C@H](OC(C)=O)[C@]5(CC)C=CCN6CC[C@]43[C@@H]65)C2)C1` [vinblastine], the resistance to vinblastine with CEM/VLB100 cells is given as 270 fold.
